Columns and labels:
FLT-3 = molecular target: T1, FLT-3 (Homo sapiens, UniProt P36888); experiment: radioisotope-based P81 filter-binding assay, FLT-3 kinase; type: biochemical; settings: for IC50: averaged from two independent dose-response curves, read-out: Enzyme assay IC50 FLT-3; for inhibition at 1 µM: compound at 1.0 μM, mean values (n=2), read-out: percent inhibition of enzyme catalytic activity, FLT-3 (numbers in parentheses)
T1 sequence (P36888 27-993): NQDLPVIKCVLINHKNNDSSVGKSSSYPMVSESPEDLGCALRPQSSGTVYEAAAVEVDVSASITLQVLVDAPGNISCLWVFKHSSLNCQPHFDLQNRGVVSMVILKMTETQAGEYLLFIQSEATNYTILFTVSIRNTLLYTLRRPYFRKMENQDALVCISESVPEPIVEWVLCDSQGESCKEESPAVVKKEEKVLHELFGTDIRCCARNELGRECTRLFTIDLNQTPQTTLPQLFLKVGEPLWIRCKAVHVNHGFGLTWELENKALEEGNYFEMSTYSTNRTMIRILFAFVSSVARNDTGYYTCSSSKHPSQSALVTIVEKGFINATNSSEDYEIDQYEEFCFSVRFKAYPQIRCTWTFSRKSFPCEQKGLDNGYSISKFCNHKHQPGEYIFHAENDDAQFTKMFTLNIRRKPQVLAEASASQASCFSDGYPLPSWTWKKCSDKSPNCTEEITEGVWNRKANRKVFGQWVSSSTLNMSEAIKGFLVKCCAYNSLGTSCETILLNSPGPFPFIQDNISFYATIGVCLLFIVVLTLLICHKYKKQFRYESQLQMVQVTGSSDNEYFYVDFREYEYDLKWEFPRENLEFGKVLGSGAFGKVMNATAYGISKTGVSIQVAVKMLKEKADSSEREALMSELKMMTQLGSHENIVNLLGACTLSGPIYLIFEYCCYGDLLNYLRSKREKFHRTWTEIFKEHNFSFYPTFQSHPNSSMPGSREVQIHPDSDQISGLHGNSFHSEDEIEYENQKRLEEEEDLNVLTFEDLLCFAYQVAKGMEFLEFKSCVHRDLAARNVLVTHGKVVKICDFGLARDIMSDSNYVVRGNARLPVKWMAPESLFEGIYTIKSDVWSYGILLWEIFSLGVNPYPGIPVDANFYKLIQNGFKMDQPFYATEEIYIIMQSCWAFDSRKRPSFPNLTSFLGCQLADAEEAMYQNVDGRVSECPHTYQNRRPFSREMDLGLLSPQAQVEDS
Protocol: (§1) Compounds of formula (I)-(IV) were evaluated for abilities in inhibiting protein kinases aurora B and FLT-3 activity using radioisotope-based P81 filter-binding assay (Table 1).

aurora B = aurora B (Homo sapiens, UniProt Q96GD4); experiment: radioisotope-based P81 filter-binding assay, aurora B kinase; type: biochemical; settings: for IC50: averaged from two independent dose-response curves, read-out: Enzyme assay IC50 Aur B; for inhibition at 1 µM: compound at 1.0 μM, mean values (n=2), read-out: percent inhibition of enzyme catalytic activity, Aur B (numbers in parentheses)
aurora B, sequence (Q96GD4 whole entry): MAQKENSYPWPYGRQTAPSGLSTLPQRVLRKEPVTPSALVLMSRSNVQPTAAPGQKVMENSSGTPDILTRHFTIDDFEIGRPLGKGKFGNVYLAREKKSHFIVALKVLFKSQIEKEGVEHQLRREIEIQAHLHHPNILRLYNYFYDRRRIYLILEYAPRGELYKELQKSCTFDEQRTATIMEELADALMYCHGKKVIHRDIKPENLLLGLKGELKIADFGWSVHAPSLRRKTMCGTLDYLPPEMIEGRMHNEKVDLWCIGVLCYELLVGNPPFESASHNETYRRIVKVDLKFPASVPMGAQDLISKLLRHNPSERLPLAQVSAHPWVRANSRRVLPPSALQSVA
Protocol: as §1

IC50 (FLT-3) | IC50 (aurora B) | melting point | inhibition at 1 µM (FLT-3) | inhibition at 1 µM (aurora B) | Structure (SMILES)
41.4 nM | 18.4 nM | 229 to 234 °C (dec.) | – | – | COc1ccc(C(=O)NC(=O)Nc2ccc3c(c2)NC(=O)/C3=C\c2[nH]c(C)c(CCC(=O)N3CCN(C)CC3)c2C)c(F)c1 [D65, (Z)—N-(3-((3,5-dimethyl-4-(3-(4-methylpiperazin-1-yl)-3-oxopropyl)-1H-pyrrol-2-yl)methylene)-2-oxoindolin-6-ylcarbomoyl)-2-fluoro-4-methoxybenzamide]
106 nM | 16.4 nM | 248 to 253 °C (dec.) | – | – | COc1ccc(C(=O)NC(=O)Nc2ccc3c(c2)NC(=O)/C3=C\c2[nH]c(C)c(CCC(=O)N3CCOCC3)c2C)c(F)c1 [D67]
510 nM | 102 nM | > 300 °C | – | – | Cn1cccc(C(=O)Nc2ccc3c(c2)NC(=O)/C3=C\c2ccc[nH]2)c1=O [D116, (Z)—N-(3-((1H-pyrrol-2-yl)methylene)-2-oxoindolin-6-yl)-1-methyl-2-oxo-1,2-dihydropyridine-3-carboxamide]
> 1000 nM | 1 nM | 292 to 297 °C (dec.) | – | – | COc1ccc(C(=O)NC(=O)Nc2cc3c(cc2F)/C(=C/c2[nH]c(C)c(CC(=O)O)c2C)C(=O)N3)cc1 [D50, (Z)-2-(5-((5-fluoro-6-(3-(4-methoxybenzoyl)ureido)-2-oxoindolin-3-ylidene)-methyl)-2,4-dimethyl-1H-pyrrol-3-yl)acetic acid]
3330 nM | 10.7 nM | > 300 °C | – | – | O=C1Nc2cc(NC(=O)N3CCN(C4CC4)C3=O)c(F)cc2/C1=C/c1ccc[nH]1 [D82, (Z)—N-(3-((1H-pyrrol-2-yl)methylene)-5-fluoro-2-oxoindolin-6-yl)-3-cyclopropyl-2-oxoimidazolidine-1-carboxamide]
16.3 nM | 1.5 nM | 275 to 280 °C (dec.) | – | – | COc1ccc(C(=O)NC(=O)Nc2cc3c(cc2F)/C(=C/c2[nH]c(C)c(CCC(=O)O)c2C)C(=O)N3)c(F)c1 [D60, (Z)-3-(5-((5-fluoro-6-(3-(2-fluoro-4-methoxybenzoyl)ureido)-2-oxoindolin-3-ylidene)methyl)-2,4-dimethyl-1H-pyrrol-3-yl)propanic acid]
– | – | 270 to 275 °C (dec.) | 3.6% | 7% | COc1ccc(C(=O)NC(=O)Nc2ccc3c(c2)NC(=O)/C3=C\c2ccncc2)cc1 [D21, (Z)-4-methoxy-N-(2-oxo-3-(pyridin-4-ylmethylene)indolin-6-ylcarbamoyl)benzamide]
79.5 nM | 16.8 nM | 273 to 278 °C (dec.) | – | – | COc1ccc(C(=O)NC(=O)Nc2ccc3c(c2)NC(=O)/C3=C\c2[nH]c(C)c(C(=O)N3CCOCC3)c2C)c(F)c1 [D66, (Z)—N-(3-((3,5-dimethyl-4-(morpholine-4-carbonyl)-1H-pyrrol-2-yl)methylene)-2-oxoindolin-6-ylcarbamoyl)-2-fluoro-4-methoxybenzamide]
> 1000 nM | 55.5 nM | 293 to 298 °C | – | – | COc1ccc(C(=O)NC(=O)Nc2ccc3c(c2)NC(=O)/C3=C\c2[nH]c(C)cc2C)cc1 [D44, (Z)—N-(3-((3,5-dimethyl-1H-pyrrol-2-yl)methylene)-2-oxoindolin-6-ylcarbamoyl)-4-methoxybenzamide]
854 nM | > 10000 nM | > 300 °C | – | – | O=C1Nc2cc(NC(=O)N3CCN(c4ccc(Cl)cc4)C3=O)ccc2/C1=C/c1ccc[nH]1 [D84, (Z)—N-(3-((1H-pyrrol-2-yl)methylene)-2-oxoindolin-6-yl)-3-(4-chlorophenyl)-2-oxoimidazolidine-1-carboxamide]
57.1 nM | 30.6 nM | 250 to 255 °C (dec.) | – | – | COc1ccc(C(=O)NC(=O)Nc2ccc3c(c2)NC(=O)/C3=C\c2[nH]c(C)c(C(=O)N3CCN(C)CC3)c2C)c(F)c1 [D64, (Z)—N-(3-((3,5-dimethyl-4-(4-methylpiperazine-1-carbonyl)-1H-pyrrol-2-yl)methylene)-2-oxoindolin-6-ylcarbamoyl)-2-fluoro-4-methoxybenzamide]
– | – | 286 to 291 °C (dec.) | 10% | 20.9% | COc1ccc(C(=O)NC(=O)Nc2ccc3c(c2)NC(=O)/C3=C\c2ccc(C(=O)O)[nH]2)cc1 [D45, (Z)-5-((6-(3-(4-methoxybenzoyl)ureido)-2-oxoindolin-3-ylidene)-methyl)-1H-pyrrole-2-carboxylic acid]
231 nM | 3.1 nM | > 300 °C | – | – | Cc1[nH]c(/C=C2\C(=O)Nc3cc(NC(=O)NC(=O)c4ccc(C(F)(F)F)cc4)ccc32)c(C)c1C(=O)O [D35, (Z)-2,4-dimethyl-5-((2-oxo-6-(3-(4-(trifluoromethyl)benzoyl)ureido)indolin-3-ylidene)methyl)-1H-pyrrole-3-carboxylic acid]
> 1000 nM | – | > 300 °C | – | 12.4% | COc1ccc(C(=O)NC(=O)Nc2ccc3c(c2)NC(=O)/C3=C\c2[nH]c(C)c(-c3ccccc3)c2C)cc1 [D43, (Z)—N-(3-((3,5-dimethyl-4-phenyl-1H-pyrrol-2-yl)methylene)-2-oxoindolin-6-ylcarbamoyl)-4-methoxybenzamide]
6.1 nM | 1.9 nM | 240 to 245 °C (dec.) | – | – | Cc1cccc(C(=O)NC(=O)Nc2ccc3c(c2)NC(=O)/C3=C\c2[nH]c(C)c(CCC(=O)O)c2C)c1 [D40, (Z)-3-(2,4-dimethyl-5-((6-(3-(3-methylbenzoyl)ureido)-2-oxoindolin-3-ylidene)-methyl)-1H-pyrrol-3-yl)propanoic acid]
– | – | 294 to 299 °C (dec.) | 26% | 25.3% | COc1ccc(N2CCN(C(=O)Nc3ccc4c(c3)NC(=O)/C4=C\c3ccc[nH]3)C2=O)cc1 [D91, (Z)—N-(3-((1H-pyrrol-2-yl)methylene)-2-oxoindolin-6-yl)-3-(4-methoxyphenyl)-2-oxoimidazolidine-1-carboxamide]
– | – | 278 to 283 °C (dec.) | 15.4% | 44% | COc1ccc(C(=O)NC(=O)Nc2ccc3c(c2)NC(=O)C3=Cc2ccco2)cc1 (stereo in doubt) [D23, (E)-N-(3-(furan-2-ylmethylene)-2-oxoindolin-6-ylcarbamoyl)-4-methoxybenzamide]
1800 nM | 19.9 nM | 284 to 289 °C (dec.) | – | – | O=C1Nc2cc(NC(=O)N3CCN(C4CC4)C3=O)ccc2/C1=C/c1ccc[nH]1 [D81, (Z)—N-(3-((1H-pyrrol-2-yl)methylene)-2-oxoindolin-6-yl)-3-cyclopropyl-2-oxoimidazolidine-1-carboxamide]
569 nM | 1040 nM | > 300 °C | – | – | O=C1Nc2cc(NC(=O)N3CCN(c4ccc(Cl)c(C(F)(F)F)c4)C3=O)ccc2/C1=C/c1ccc[nH]1 [D87, (Z)—N-(3-((1H-pyrrol-2-yl)methylene)-2-oxoindolin-6-yl)-3-(4-chloro-3-(trifluoromethyl)phenyl)-2-oxoimidazolidine-1-carboxamide]
54.2 nM | 2.1 nM | 295 to 300 °C (dec.) | – | – | Cc1[nH]c(/C=C2\C(=O)Nc3cc(NC(=O)NC(=O)c4ccc(Cl)c(Cl)c4)ccc32)c(C)c1C(=O)O [D34, (Z)-5-((6-(3-(3,4-dichlorobenzoyl)ureido)-2-oxoindolin-3-ylidene)methyl)-2,4-dimethyl-1H-pyrrole-3-carboxylic acid]
